Assay results taken from patent US20120010148A1, “COMBINATION THERAPIES USING NAP” (ALLON THERAPEUTICS INC., priority 2008, published 2012).
“Also recorded” adds a separate entry of the source.

How the values were obtained:
STOP+/− mice [1] = test: Open field locomotor activity; format: in vivo, mouse
Method: The NAP vehicle solution (termed DD), included the following ingredients (per milliliter): 7.5 mg of NaCl, 1.7 mg of citric acid monohydrate, 3 mg of disodium phosphate dihydrate, and 0.2 mg of benzalkonium chloride solution (50%) (Alcalay R N et al., Neurosci Lett, 361(1-3): 128-131 (2004)). NAP or vehicle solution (DD) was administered to mice hand-held in a semisupine position with nostrils facing the investigator. A pipette tip was used to administer 2.5 μl/nostril. The mouse was hand-held until the solution was totally absorbed (10 s). […] STOP+/− male mice (5 months old, n=4) received daily doses of 10 mg/kg intraperitoneal injection (IP) of clozapine (5 days a week), for the duration of the experiment (7 weeks). A control STOP+/− male mice group (5 month old, n=3) were injected daily with saline. NAP treatment included daily (5 days a week) intranasal administrations (0.5 μg/5 μl/mouse/day) for 7-10 weeks. For intranasal administration, the peptide was dissolved in the vehicle solution (termed DD) described above. Each experimental group included 10-12 mice, 4-12 month-old; mean age 6 months). […]
Locomotor activity was measured in 5 consecutive sessions, 3 minutes each and the mean path length in cm of each mouse in the 3 minute sessions per the entire 15 minute period of observation in open field (80 cm diameter) was determined. […]

[2] = tested on: model of fetal alcohol syndrome; conditions: in vivo, ip; cited from earlier work
STOP+/− mice [3] = test: Morris water maze and probe test; format: in vivo, mouse
Method: The NAP vehicle solution (termed DD), included the following ingredients (per milliliter): 7.5 mg of NaCl, 1.7 mg of citric acid monohydrate, 3 mg of disodium phosphate dihydrate, and 0.2 mg of benzalkonium chloride solution (50%) (Alcalay R N et al., Neurosci Lett, 361(1-3): 128-131 (2004)). NAP or vehicle solution (DD) was administered to mice hand-held in a semisupine position with nostrils facing the investigator. A pipette tip was used to administer 2.5 μl/nostril. The mouse was hand-held until the solution was totally absorbed (10 s). […]
The test measures the ability of rodents to learn and remember, by spatial navigation, the place of the hidden platform in a round water maze. […] Here, mice were monitored on five consecutive swimming days. […] The time required to reach the platform during the first daily test (indicative of learning and intact reference memory) and the time required to reach the platform in the second trial [indicative of short-term (working) memory] were measured and recorded separately. […] The platform was removed from the maze and the time spent by the mice in the pool's quadrant where the platform used to be was recorded. […] Mice were released into the water and the time taken to find the platform was recorded (maximum 60 seconds). […]

[4] = tested on: ADNP-deficient mice, triple transgenic mouse model of AD, model of frontotemporal dementia; conditions: in vivo; cited from earlier work
[5] = tested on: closed head injury in mice; conditions: cited from earlier work
ischemic injury = conditions: after ischemic injury; cited from earlier work

**Q.** For `CC[C@H](C)[C@H](NC(=O)[C@H](CO)NC(=O)[C@@H](NC(=O)[C@@H]1CCCN1C(=O)[C@H](C)NC(=O)[C@@H](N)CC(N)=O)C(C)C)C(=O)N1CCC[C@H]1C(=O)N[C@@H](CCC(N)=O)C(=O)O` [NAP], which “hyper-locomotion (path length) in open field” value (STOP+/− mice [1]; Example 3, STOP+/− male mice, NAP intranasal 0.5 μg/mouse/day or clozapine 10 mg/kg IP, FIG. 8) is on record?
**A.** The value was “significantly decreased the hyper-locomotion; also recorded: significantly reduced the path length”.

**Q.** What about the open field activity (STOP+/− mice [1]; Example 4, STOP+/− mice, NAP intranasal 0.5 microgram/mouse/day, clozapine injection 3 mg/kg/day, FIG. 11) of the same compound?
**A.** The open field activity was “also reduced the activity”.

**Q.** What about the “fetal death after intraperitoneal injection of alcohol” value [2] of the same compound?
**A.** Its value is “inhibited”.

**Q.** What about the “probe test, time in area where the platform used to be (spatial memory)” value (STOP+/− mice [3]; Example 3, STOP+/− male mice, 5th day, NAP intranasal 0.5 μg/mouse/day or clozapine IP, FIG. 10) of the same compound?
**A.** The value was “significantly improved the performance; also recorded: significantly more time”.

**Q.** What about the “Morris water maze learning and memory” value (STOP+/− mice [3]; Example 4, STOP+/− mice, NAP 0.5 microgram/mouse/day, clozapine 3 mg/kg/day, FIG. 13) of the same compound?
**A.** Its value is “protection against adverse clozapine effects on learning”.

**Q.** What about the “tau hyperphosphorylation and cognitive functions” value [4] of the same compound?
**A.** The value was “reduces tau hyperphosphorylation and enhances cognitive functions”.

**Q.** And the “damage caused by closed head injury” value [5]?
**A.** Its value is “reduced damage”.

**Q.** And the “infarct volume and motor function deficits” value (ischemic injury)?
**A.** The value was “reduced infarct volume and motor function deficits”.
